Values after ≈ are worked out from the molar mass of the structure shown. Where two headings read alike, the source gives them in different places.
Tests used:
[1] = system: C. albicans; experiment: Antifungal susceptibility testing (broth dilution), C. albicans; assay type: cell-based, Candida albicans; settings: for MIC: Candida albicans, read-out: minimum inhibitory concentration (MIC)
Description: (§1) Anti-fungal testing was completed with a common lot for compounds 100 and 102.
(§2) A 10 mg portion of each powder was weighed out and added to 1 ml of sterile distilled water for compound 100 and DMSO for compound 102. The resulting concentration of […] was diluted to a working concentration of 640 μg/ml for each compound. All subsequent dilutions were also made using the respective diluents. Final testing concentrations ranged from 0.125-64 μg/ml.
(§3) A total of 23 isolates were tested to include 3 Candida albicans, 3 Candida glabrata, 3 Cryptococcus neoformans, 3 Aspergillus fumigatus, 3 Rhizopus oryzae, 3, Fusarium solani, 3 Pseudallescheria boydii, and 2 […] rubrum. All isolates were clinical isolates submitted to the Fungus Testing Laboratory for evaluation. Antifungal susceptibility testing was accomplished according to the methods outlined in the National Committee for Clinical Laboratory Standards, M-27A2, Reference Method for Broth Dilution Antifungal Susceptibility Testing of Yeasts; Approved Standard, and M38-A “Reference Method for Broth Dilution Antifungal Susceptibility Testing of Conidium-Forming Filamentous Fungi; Approved Standard”. This includes testing in RPMI-1640 with glutamine and without bicarbonate, an inoculum size of 0.5-2.5×10^3 for yeasts or 1-5×10^4 for moulds, and incubation at 35° C. for 24 and 48 hours.

[2] = system: T. rubrum; experiment: Antifungal susceptibility testing (broth dilution), T. rubrum; assay type: cell-based, Trichophyton rubrum; settings: for MIC: Trichophyton rubrum, read-out: minimum inhibitory concentration (MIC); for minimum inhibitory concentration (MIC): isolate 07-2055
Description: as §1, §2, §3

[3] = system: R. arrhizus; experiment: Antifungal susceptibility testing (broth dilution), R. arrhizus; assay type: cell-based, Rhizopus oryzae; settings: for MIC: Rhizopus arrhizus, read-out: minimum inhibitory concentration (MIC)
Description: as §1, §2, §3

[4] = system: DU-145 cells; experiment: CellTiter-Glo assay, DU-145; assay type: cell-based; settings: Homo sapiens; DU-145 Prostate, 72 hr; read-out: IC50 (50% Inhibition of Proliferation)
Description: (§4) MDA-MB-231, HT-29, NCI-H460, NCI-H522, NCI-H69, GXF-209, HepG2, OVAR-3, PANC-1, DU-145, LNCAP, HL-60, K-562, and MOLT-4 cell lines were either obtained from the American Type Culture Collection (ATCC; Manassas, Va.), or from the National Cancer Institute (NCI; Frederick, Md.). RPMI-1640 media, L-glutamine dipeptide (HyQ SG-200), and HEPES were obtained from Hyclone (Logan, Utah).
(§5) All cell lines were routinely cultured twice weekly in RPMI-1640 medium supplemented with 2 mM L-glutamine dipeptide, 10 mM HEPES, and 10% FBS.
(§6) The adherent cell lines MDA-MB-231, HT-29, NCI-H460, NCI-H522, GXF-209, HepG2, OVAR-3, PANC-1, DU-145, and LNCAP cells were each seeded into two 96-well plates at 2,500 cells per well in a total volume of 50 uL and incubated in a 37° C. humidified 5% CO2 cell culture incubator overnight. The suspension cell lines NCI-H69, HL-60, K-562, and MOLT-4 were each seeded into two 96-well plates at 10,000 cell per well in a total volume of 50 uL and incubated in a 37° C. humidified 5% CO2 incubator overnight.
(§7) This was followed by making 2× stocks of the final concentrations required in RPMI-1640 medium. […]
(§8) Briefly, plates were removed from the incubator and placed on the bench at room temperatures for 30 minutes. […] Luminescence was then recorded using the PerkinElmer Microbeta scintillation and luminescence counter (Trilux).

[5] = system: MDA-MB-231 cells; experiment: CellTiter-Glo assay, MDA-MB-231; assay type: cell-based; settings: Homo sapiens; MDA-MB-231 Breast, 72 hr; read-out: IC50 (50% Inhibition of Proliferation)
Description: as §4, §5, §6, §7, §8

[6] = Solubility (water, lipid); assay type: physicochemical
[7] = system: K-562 cells; experiment: CellTiter-Glo assay, K-562; assay type: cell-based; settings: Homo sapiens, K562; K-562 Leukemia chronic myelo, 72 hr; read-out: IC50 (50% Inhibition of Proliferation)
Description: as §4, §5, §6, §7, §8

[8] = system: GBM cell line U373; experiment: cells; assay type: cell-based, human; settings: for Percent of Control, Observed: U373 (Table 4)
Description: To observe the effects Compound 100 in combination with retinoic acids, Compound 100 was combined with all-trans retinoic acid. […] The total number of cells is counted in the triplicate cultures at each dose and in controls after 7 days and the average number of cells and the standard deviation is determined.
The amount of inhibition of GBM cell growth is expressed as the proportion of the number of cells in the experimental dishes compared to the number of cells in control dishes containing only the drug vehicle and culture medium. The average percent of control is plotted and bracketed by one standard deviation calculated from the triplicate measurements.
Synergism (potentiation) of the inhibitory activity of two drugs in combination is said to be present when the percent survival in the presence of two drugs is less than the product of the percent survivals of the two drugs used alone at the same doses in the combination.

[9] = system: GBM cell line U87; experiment: U87 xenograft tumor growth in SCID mice; assay type: in vivo; settings: subcutaneous in SCID mice, ip daily for 20 days (FIG. 17)
Description: For in vivo experiments, subcutaneously implanted tumor cells are allowed to grow over 7 days to a size of 5-7 mm. On day 7, drug administration is begun ip daily for 20 days. The maximum perpendicular diameters of the tumor masses are measured every 2 to 5 days. On the 21st day after initiation of treatment, the animals are sacrificed and dissected free of the subcutaneous tissues and measured.

[10] = Stability at acid pH; assay type: physicochemical

SMILES | minimum inhibitory concentration (MIC) ([1]; isolate 07-3006, 24 Hours) [µg/mL] | minimum inhibitory concentration (MIC) ([1]; isolate 07-3006, 48 Hours) [µg/mL] | minimum inhibitory concentration (MIC) ([1]; isolate 07-3011, 24 Hours) [µg/mL] | minimum inhibitory concentration (MIC) ([1]; isolate 07-3011, 48 Hours) [µg/mL] | minimum inhibitory concentration (MIC) ([2]; 24 Hours) [µg/mL] | minimum inhibitory concentration (MIC) ([2]; 48 Hours) [µg/mL] | minimum inhibitory concentration (MIC) ([3]; isolate 07-2044, 24 Hours) [µg/mL] | minimum inhibitory concentration (MIC) ([3]; isolate 07-2044, 48 Hours) [µg/mL] | minimum inhibitory concentration (MIC) ([3]; isolate 07-2078, 24 Hours) [µg/mL] | minimum inhibitory concentration (MIC) ([3]; isolate 07-2078, 48 Hours) [µg/mL] | IC50 [4] [µM] | IC50 [5] [µM] | IC50 [7] [µM] | further results
CC(C)(C)OC(=O)N1CCN(C(=O)C2C(C(=O)O)[C@H]3CC[C@@H]2O3)CC1 (stereo in doubt) [Compound 102, 4-(3-Carboxy-7oxa-bicyclo[2.2.1]heptane-2-carbonyl)piperazine-1-carboxylic acid tert-butyl ester] | >64 | >64 | >64 | >64 | 2 (≈ 5.64 µM) | 2 (≈ 5.64 µM) | >64 | >64 | >64 | >64 | 13 | 6.6 | 13.7 | MIC ([1]; isolate 07-3012, 24 Hours): > 64 µg/mL; MIC ([1]; isolate 07-3012, 48 Hours): > 64 µg/mL; MIC ([2]; isolate 07-1743, 24 Hours): 2 µg/mL (≈ 5.64 µM); MIC ([2]; isolate 07-1743, 48 Hours): 2 µg/mL (≈ 5.64 µM); Antifungal activity against T. rubrum (in words) ([2]; testing concentrations 0.125-64 μg/ml): significant activity; MIC ([3]; isolate 07-1870, 24 Hours): > 64 µg/mL; MIC ([3]; isolate 07-1870, 48 Hours): > 64 µg/mL; Lipid solubility (in words) [6]: lipid soluble
CN1CCN(C(=O)C2C(C(=O)O)[C@H]3CC[C@@H]2O3)CC1 (stereo partly shown) [Compound 100, Endothall 4-Methylpiperazine Monoamide] | >64 | >64 | >64 | >64 | >64 | >64 | >64 | >64 | >64 | >64 | 16.4 | 9.5 | 10.7 | MIC ([1]; 24 h): > 64 µg/mL; MIC ([1]; 48 h): > 64 µg/mL; MIC ([2]; 24 h): > 64 µg/mL; MIC ([2]; 48 h): > 64 µg/mL; MIC ([3]; 24 h): > 64 µg/mL; MIC ([3]; 48 h): > 64 µg/mL; Percent of Control, Observed ([8]; Compound 100 1 μM): 97.9 +/− 1.0% of Control; Percent of Control, Observed ([8]; Compound 100 5 μM): 52.5 +/− 2.9% of Control; activity at 1 µM ([8]; Homo sapiens, U373 MG, 168 h, Compound 100 1 uM, U373, 7 days (Table 3), read-out: Percent of Control, Observed): 78%; Water solubility (in words) ([6]; own compounds): water soluble; Effect on U87 xenograft tumor growth (in words) [9]: supresses the growth; Stability at acid pH (in words) [10]: stable at acid pH
